Data from patent US20250195521A1 (Revolution Medicines, Inc., priority 2020, published 2025).

Key:
[1] = target: NRAS G12C binding to BRAF RBD (Homo sapiens (Human), UniProt P01111+P62937, G12C); experiment: Ras-Raf disruption/FRET/MOA assay, NRAS G12C; assay type: biochemical
Method in brief: (§1)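 TR-FRET ratio drop relative to DMSO wells marks disruption of the Ras–RAF complex, reported as IC50. Compounds promote a Ras(nucleotide)–cyclophilin A ternary complex that blocks BRAF RBD binding; dosing was 10 points, 3-fold, top 30 μM final, 3 h at 25° C before detection.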

[2] = target: KRAS G13C binding to BRAF RBD (Homo sapiens (Human), UniProt P01116+P62937, G13C); experiment: Ras-Raf disruption/FRET/MOA assay, KRAS G13C; assay type: biochemical
Chain of KRAS G13C binding to BRAF RBD (P01116 other isoform, or with tags, fused parts or gaps G13C): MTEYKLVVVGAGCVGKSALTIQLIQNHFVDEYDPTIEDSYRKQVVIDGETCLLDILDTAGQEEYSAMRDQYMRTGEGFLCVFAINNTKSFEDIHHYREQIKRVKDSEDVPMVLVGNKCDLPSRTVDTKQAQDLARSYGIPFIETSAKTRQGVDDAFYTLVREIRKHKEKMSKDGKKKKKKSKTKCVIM
Chain of KRAS G13C binding to BRAF RBD (P62937 whole entry, the tested form may be a part): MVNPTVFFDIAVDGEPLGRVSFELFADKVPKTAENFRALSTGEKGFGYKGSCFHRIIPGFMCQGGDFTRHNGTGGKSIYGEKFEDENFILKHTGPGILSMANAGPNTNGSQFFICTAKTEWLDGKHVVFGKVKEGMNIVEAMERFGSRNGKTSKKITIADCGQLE
Excerpt: Disruption of B-Raf Ras-binding Domain (BRAF^RBD) Interaction with K-Ras by Compounds of the Invention (also called a FRET assay or an MOA assay)
Note—The following protocol describes a procedure for monitoring disruption of K-Ras G12C(GMP-PNP) binding to BRAF^RBD by a compound of the invention. This protocol may also be executed substituting other Ras proteins or nucleotides.
(§2) The purpose of this biochemical assay was to measure the ability of test compounds to facilitate ternary complex formation between a nucleotide-loaded K-Ras isoform and Cyclophilin A; the resulting ternary complex disrupts binding to a BRAF^RBD construct, inhibiting K-Ras signaling through a RAF effector. Data is reported as IC50 values.
(§3) In assay buffer containing 25 mM HEPES pH 7.3, 0.002% Tween20, 0.1% BSA, 100 mM NaCl and 5 mM MgCl2, tagless Cyclophilin A, His6-K-Ras-GMPPNP, and GST-BRAF^RBD were combined in a 384-well assay plate at final concentrations of 25 μM, 12.5 nM and 50 nM, respectively. Compound was present in plate wells as a 10-point 3-fold dilution series starting at a final concentration of 30 μM. After incubation at 25° C. for 3 hours, a mixture of Anti-His Eu—W1024 and anti-GST allophycocyanin was then added to assay sample wells at final concentrations of 10 nM and 50 nM, respectively, and the reaction incubated for an additional 1.5 hours. […] Compounds that facilitate disruption of a K-Ras: RAF complex were identified as those eliciting a decrease in the TR-FRET ratio relative to DMSO control wells.

[3] = target: KRAS G12S binding to BRAF RBD (Homo sapiens (Human), UniProt P01116+P62937, G12S); experiment: Ras-Raf disruption/FRET/MOA assay, KRAS G12S; assay type: biochemical
Chain of KRAS G12S binding to BRAF RBD (P01116 other isoform, or with tags, fused parts or gaps G12S): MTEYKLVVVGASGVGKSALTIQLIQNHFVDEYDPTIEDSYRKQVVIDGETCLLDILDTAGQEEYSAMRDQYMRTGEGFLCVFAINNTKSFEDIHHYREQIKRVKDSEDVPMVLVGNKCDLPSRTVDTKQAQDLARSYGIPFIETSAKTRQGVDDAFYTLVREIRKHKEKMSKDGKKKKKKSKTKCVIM
Chain of KRAS G12S binding to BRAF RBD (P62937 whole entry): as the sequence (P62937 whole entry, the tested form may be a part) above
Method in brief: as §1

[4] = test system: K-Ras G12C (NCI-H358 cells); experiment: Potency assay: pERK in NCI-H358 cells; assay type: cell-based, human; conditions: Homo sapiens; NCI-H358 cells, 4 hours; read-out: pERK EC50 (H358 KRAS G12C)
Method in brief: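 Cells plated the day before were exposed for 4 h at 37° C, 5% CO2 to a 10-point, 3-fold DMSO dilution series (10 mM top stock), in duplicate. Phospho-ERK was read by AlphaLISA SureFire Ultra or by In-Cell Western with DRAQ5 DNA stain, and IC50 came from a 4-parameter sigmoidal fit.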

[5] = test system: NCI-H358 (K-Ras G12C); experiment: CellTiter-Glo cell viability assay, NCI-H358; assay type: cell-based, human; conditions: Homo sapiens, NCI-H358, 120 h, 5-day treatment; read-out: H358 Cell Viability assay data (K-Ras G12C, IC50)
Method in brief: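 Luminescent CellTiter-Glo read-out on day 5 after compound exposure; signal expressed as percent of mean DMSO control; four-parameter logistic fit gives the value.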

[6] = target: K-Ras G12C(GMP-PNP) binding to BRAF RBD (Homo sapiens (Human), UniProt P01116+P62937, G12C); experiment: Disruption of BRAF RBD interaction with K-Ras (FRET / MOA assay), K-Ras G12C; assay type: biochemical; conditions: read-out: KRAS G12C FRET IC50
Chain of K-Ras G12C(GMP-PNP) binding to BRAF RBD (P01116 other isoform, or with tags, fused parts or gaps G12C): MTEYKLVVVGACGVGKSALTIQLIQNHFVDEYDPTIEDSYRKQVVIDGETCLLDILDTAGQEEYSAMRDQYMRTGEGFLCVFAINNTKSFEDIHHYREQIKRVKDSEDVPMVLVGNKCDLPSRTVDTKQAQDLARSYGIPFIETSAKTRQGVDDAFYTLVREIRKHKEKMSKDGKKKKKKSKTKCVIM
Chain of K-Ras G12C(GMP-PNP) binding to BRAF RBD (P62937 whole entry, canonical isoform): as the sequence (P62937 whole entry, the tested form may be a part) above
Method in brief: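 Incubation of compound (up to 30 μM final, 3-fold steps) with GMP-PNP-type loaded Ras isoform, cyclophilin A and BRAF RBD ran 3 h at 25° C, followed by 1.5 h with detection antibodies. Disruption appears as a reduced TR-FRET ratio compared with DMSO controls, expressed as IC50.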

[7] = target: KRAS WT binding to BRAF RBD (Homo sapiens (Human), UniProt P01116+P62937); experiment: Ras-Raf disruption/FRET/MOA assay, KRAS WT; assay type: biochemical
Chain of KRAS WT binding to BRAF RBD (P01116 other isoform, or with tags, fused parts or gaps): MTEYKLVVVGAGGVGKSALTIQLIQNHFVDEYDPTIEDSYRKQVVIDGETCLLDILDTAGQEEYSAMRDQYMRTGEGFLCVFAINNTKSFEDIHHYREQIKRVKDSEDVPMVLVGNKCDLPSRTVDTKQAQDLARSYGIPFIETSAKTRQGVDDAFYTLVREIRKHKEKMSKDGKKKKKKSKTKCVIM
Chain of KRAS WT binding to BRAF RBD (P62937 whole entry): as the sequence (P62937 whole entry, the tested form may be a part) above
Method in brief: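 Compounds (top 30 μM, 3-fold, 10 points) promote Cyclophilin A (25 μM) ternary complex with His6-Ras-GMPPNP (12.5 nM), disrupting GST-BRAF RBD (50 nM) binding; 3 h, 25°C, 25 mM HEPES pH 7.3, 100 mM NaCl, 5 mM MgCl2. Detection reagents (Eu anti-His 10 nM, APC anti-GST 50 nM) added for 1.5 h; IC50 reported.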

[8] = target: NRAS Q61K (Homo sapiens (Human), UniProt P01111+P62937, Q61K); experiment: Ras-Raf disruption/FRET/MOA assay, NRAS Q61K; assay type: biochemical
Chain of NRAS Q61K (P01111 whole entry Q61K, the tested form may be a part): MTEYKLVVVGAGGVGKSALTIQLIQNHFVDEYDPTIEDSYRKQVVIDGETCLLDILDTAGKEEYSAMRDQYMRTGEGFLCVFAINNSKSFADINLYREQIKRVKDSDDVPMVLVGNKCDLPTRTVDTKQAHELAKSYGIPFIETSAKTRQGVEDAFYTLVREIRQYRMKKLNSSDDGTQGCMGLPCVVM
Chain of NRAS Q61K (P62937 whole entry, the tested form may be a part): as the sequence (P62937 whole entry, the tested form may be a part) above
Excerpt: (§4) Disruption of B-Raf Ras-Binding Domain (BRAF^RBD) Interaction with K-Ras by Compounds of the Invention (Also Called a FRET Assay or an MOA Assay)
(§5) Note—The following protocol describes a procedure for monitoring disruption of K-Ras G12C (GMP-PNP) binding to BRAF^RBD by a compound of the invention. This protocol may also be executed substituting other Ras proteins or nucleotides, such as K-Ras G12D and K-Ras G13D.
as §2
as §3, with “12.5 nM,” for “12.5 nM”, “of anti-His” for “of Anti-His”

[9] = target: KRAS G12V (Homo sapiens (Human), UniProt P01116+P62937, G12V); experiment: Ras-Raf disruption/FRET/MOA assay, KRAS G12V; assay type: biochemical
Chain of KRAS G12V (P01116 other isoform, or with tags, fused parts or gaps G12V): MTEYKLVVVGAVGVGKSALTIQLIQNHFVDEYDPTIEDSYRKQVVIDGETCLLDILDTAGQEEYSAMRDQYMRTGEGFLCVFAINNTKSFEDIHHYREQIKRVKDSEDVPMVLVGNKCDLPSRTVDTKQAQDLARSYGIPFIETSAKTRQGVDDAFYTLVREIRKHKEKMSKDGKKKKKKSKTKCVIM
Chain of KRAS G12V (P62937 whole entry): as the sequence (P62937 whole entry, the tested form may be a part) above
Method in brief: (§6)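 TR-FRET of nucleotide-loaded (GMP-PNP) His6-Ras (12.5 nM) binding to GST-BRAF RBD (50 nM) with Cyclophilin A (25 μM) in HEPES pH 7.3 buffer; 10-point 3-fold compound series from 30 μM, 3 h at 25 °C, then anti-His Eu/anti-GST APC 1.5 h. IC50 from decreased FRET ratio vs DMSO.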

[10] = target: KRAS WT (Homo sapiens (Human), UniProt P01116+P62937); experiment: Ras-Raf disruption/FRET/MOA assay, KRAS WT; assay type: biochemical
Chain of KRAS WT (P01116 other isoform, or with tags, fused parts or gaps): as the sequence (P01116 other isoform, or with tags, fused parts or gaps) above
Chain of KRAS WT (P62937 whole entry): as the sequence (P62937 whole entry, the tested form may be a part) above
Method in brief: as §6

[11] = target: KRAS G12C (Homo sapiens (Human), UniProt P01116+P62937, G12C); experiment: Ras-Raf disruption/FRET/MOA assay, KRAS G12C; assay type: biochemical
Chain of KRAS G12C (P01116-2 other isoform, or with tags, fused parts or gaps G12C): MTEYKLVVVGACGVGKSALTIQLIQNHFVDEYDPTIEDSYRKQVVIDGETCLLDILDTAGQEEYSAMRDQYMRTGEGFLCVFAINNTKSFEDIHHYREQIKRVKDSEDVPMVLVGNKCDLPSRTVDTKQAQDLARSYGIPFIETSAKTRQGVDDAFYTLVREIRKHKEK
Chain of KRAS G12C (P62937 whole entry): as the sequence (P62937 whole entry, the tested form may be a part) above
Method in brief: as §6

[12] = target: KRAS G13D (Homo sapiens (Human), UniProt P01116+P62937, G13D); experiment: Ras-Raf disruption/FRET/MOA assay, KRAS G13D; assay type: biochemical
Method in brief: as §6

[13] = target: KRAS G12D (Homo sapiens (Human), UniProt P01116+P62937, G12D); experiment: Ras-Raf disruption/FRET/MOA assay, KRAS G12D; assay type: biochemical
Chain of KRAS G12D (P01116 other isoform, or with tags, fused parts or gaps G12D): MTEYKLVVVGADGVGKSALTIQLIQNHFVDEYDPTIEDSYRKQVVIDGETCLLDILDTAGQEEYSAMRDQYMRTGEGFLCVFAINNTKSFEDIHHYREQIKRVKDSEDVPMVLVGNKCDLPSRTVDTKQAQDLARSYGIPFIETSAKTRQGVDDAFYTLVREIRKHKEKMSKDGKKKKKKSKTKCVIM
Chain of KRAS G12D (P62937 whole entry): as the sequence (P62937 whole entry, the tested form may be a part) above
Method in brief: as §6

[14] = target: NRAS WT (Homo sapiens (Human), UniProt P01111+P62937); experiment: Ras-Raf disruption/FRET/MOA assay, NRAS WT; assay type: biochemical
Chain of NRAS WT (P01111 whole entry): as the sequence (P01111 whole entry Q61K, the tested form may be a part) above, with K61Q counted along it
Chain of NRAS WT (P62937 whole entry): as the sequence (P62937 whole entry, the tested form may be a part) above
Excerpt: as §4, §5, §2
as §3, with “12.5 nM,” for “12.5 nM”, “of anti-His” for “of Anti-His”

[15] = target: KRAS Q61H (Homo sapiens (Human), UniProt P01116+P62937, Q61H); experiment: Ras-Raf disruption/FRET/MOA assay, KRAS Q61H; assay type: biochemical
Chain of KRAS Q61H (P01116 other isoform, or with tags, fused parts or gaps Q61H): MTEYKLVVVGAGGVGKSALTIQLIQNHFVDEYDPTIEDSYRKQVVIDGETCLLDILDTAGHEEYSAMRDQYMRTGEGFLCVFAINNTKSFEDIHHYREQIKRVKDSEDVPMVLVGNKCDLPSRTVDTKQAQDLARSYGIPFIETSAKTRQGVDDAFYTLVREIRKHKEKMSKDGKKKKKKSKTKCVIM
Chain of KRAS Q61H (P62937 whole entry): as the sequence (P62937 whole entry, the tested form may be a part) above
Excerpt: as §4, §5, §2
as §3, with “12.5 nM,” for “12.5 nM”, “of anti-His” for “of Anti-His”

[16] = target: KRAS G13C (Homo sapiens (Human), UniProt P01116+P62937, G13C); experiment: Ras-Raf disruption/FRET/MOA assay, KRAS G13C; assay type: biochemical
Method in brief: as §6

[17] = test system: AsPC-1 (K-Ras G12D); experiment: Potency assay: pERK; assay type: cell-based, human; conditions: Homo sapiens, ASPC1; AsPC-1 KRAS G12D; read-out: pERK EC50
Method in brief: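 pERK decrease measured after 4 h compound treatment at 37 °C (10 three-fold dilutions, duplicate wells), by either fixed-cell In-Cell Western with DRAQ5 counterstain or AlphaLISA on lysates. Signal fitted against log concentration with a four-parameter model to give IC50.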

[18] = target: KRAS G12S (Homo sapiens (Human), UniProt P01116+P62937, G12S); experiment: Ras-Raf disruption/FRET/MOA assay, KRAS G12S; assay type: biochemical
Chain of KRAS G12S (P01116 other isoform, or with tags, fused parts or gaps G12S): as the sequence (P01116 other isoform, or with tags, fused parts or gaps G12S) above
Chain of KRAS G12S (P62937 whole entry): as the sequence (P62937 whole entry, the tested form may be a part) above
Method in brief: as §6

[19] = target: NRAS Q61R (Homo sapiens (Human), UniProt P01111+P62937, Q61R); experiment: Ras-Raf disruption/FRET/MOA assay, NRAS Q61R; assay type: biochemical
Chain of NRAS Q61R (P01111 whole entry Q61R): as the sequence (P01111 whole entry Q61K, the tested form may be a part) above, with K61R counted along it
Chain of NRAS Q61R (P62937 whole entry): as the sequence (P62937 whole entry, the tested form may be a part) above
Excerpt: as §4, §5, §2
as §3, with “12.5 nM,” for “12.5 nM”, “of anti-His” for “of Anti-His”

[20] = target: NRAS G12C (Homo sapiens (Human), UniProt P01111+P62937, G12C); experiment: Ras-Raf disruption/FRET/MOA assay, NRAS G12C; assay type: biochemical
Chain of NRAS G12C (P01111 whole entry G12C): as the sequence (P01111 whole entry Q61K, the tested form may be a part) above, with G12C, K61Q counted along it
Chain of NRAS G12C (P62937 whole entry): as the sequence (P62937 whole entry, the tested form may be a part) above
Method in brief: as §6

IC50 [1] [nM]	IC50 [2] [nM]	IC50 [3] [nM]	EC50 [4] [µM]	IC50 [5] [nM]	IC50 [6] [nM]	IC50 [7] [nM]	Structure (SMILES)	IC50 [8] [nM]	IC50 [9] [nM]	IC50 [10] [nM]	IC50 [11] [nM]	IC50 [12] [nM]	IC50 [13] [nM]	IC50 [14] [nM]	IC50 [15] [nM]	IC50 [16] [nM]	EC50 [17] [µM]	IC50 [18] [nM]	IC50 [19] [nM]	IC50 [20] [nM]
< 10	< 10						CCn1c(-c2cnccc2COC)c2c3cc(ccc31)-c1cc(O)cc(c1)C[C@H](NC(=O)[C@H](C(C)C)N(C)C(=O)[C@H]1CCN(C(=O)C#CCN(C)C)C1)C(=O)N1CCC[C@H](N1)C(=O)OCC(C)(C)C2 [Compound A107]													
	< 10	10 to 100	< 5	< 10	< 10	10 to 100	CCn1c(-c2cccnc2[C@H](C)OC)c2c3cc(ccc31)-c1csc(n1)C[C@H](NC(=O)[C@H](C(C)C)N(C)C(=O)N1CC(C)(OC)C1)C(=O)N1CCC[C@H](N1)C(=O)OCC(C)(C)C2 [Compound A299]													
							CCn1c(-c2cccnc2[C@H](C)OC)c2c3cc(ccc31)-c1cc(O)cc(c1)C[C@H](NC(=O)[C@H](C(C)C)N(C)C(=O)[C@@]1(C)CCCN1C(=O)[C@H]1CN1)C(=O)N1CCC[C@H](N1)C(=O)OCC(C)(C)C2 [Example 239]	100 to 1000	10 to 100	10 to 100	10 to 100	10 to 100	100 to 1000	10 to 100	10 to 100	10 to 100	< 5	10 to 100	100 to 1000	10 to 100
